Test results: patent US20250339504A1, “CANCER VACCINE WITH USE OF COMMON CANCER ANTIGEN COCKTAIL, TCR/CAR-T CELL THERAPEUTIC, COMPANION DIAGNOSTIC METHOD, AND METHOD FOR DIAGNOSING RISK OF CANCER ONSET BY DETECTING CIRCULATING TUMOR CELLS” (National Cancer Center, priority 2022, published 2025)

What was measured:
[1] = test system: HLA-A*24:02 transgenic mice; experiment: Peptide vaccine CTL induction, IFN-γ ELISpot, HLA-A*24:02 Tgm; assay type: in vivo; details: HLA-A*24:02-restricted short peptide vaccine once per week, three times, splenocytes
Procedure: (§1) The predicted antigen peptides were evaluated on the capability of inducing CTLs by using transgenic mice with an HLA gene introduced therein. Each peptide was dissolved in dimethyl sulfoxide (DMSO, FUJIFILM Wako Pure Chemical Corporation) at 10 mg/ml, and HLA transgenic mice were immunized with the resultant together with an adjuvant every week, three times in total. One week after that, the spleens were extracted, and the productions of IFN-γ were evaluated through IFN-γ ELISpot assay.
(§2) In ELISpot assay, CD8-positive T cells were isolated from splenocytes of immunized mice by means of an MACS, and suspended at 1×10^5 cells/well, and the resultant was used as effector cells. Splenocytes of unimmunized mice were subjected to radiation (100 kV, 10 mA, 100 Gy), and suspended at a concentration of 2×10^6 cells/well in Final medium supplemented with any one of the peptides at a concentration of 20 ug/ml, and the resultant was used as target cells.
(§3) FIG. 14, FIG. 15, and Table 1 show identification of multiple peptides each capable of inducing CD8-positive killer T cells (CTLs) reactive with the peptide in splenocytes of mice systemically expressing human HLA-A*24:02 or HLA-A*02:01 in their cells by screening, wherein a peptide vaccine of peptides predicted to be presented by HLA-A*24:02 or HLA-A*02:01 and synthesized from the amino acid sequences of the ten common cancer antigen full-length proteins was administered once per week, three times in total. The rates of inducing CTLs reactive with those peptides were 30 peptides in the 72 HLA-A*24:02-restricted common cancer antigen short peptides, and 38 peptides in the 73 HLA-A*02:01-restricted common cancer antigen short peptides; 68 peptides in the 145 peptides in total.

HLA-A*24:02 Tgm = experiment: Long peptide vaccine, IFN-γ ELISpot, HLA-A*24:02 Tgm; assay type: in vivo, mice; details: long peptide (15 to 21 mer) containing the short peptide, CTLs reactive with the short peptide
Procedure: as §2

[2] = test system: HLA-A*02:01 transgenic mice; experiment: Peptide vaccine CTL induction, IFN-γ ELISpot, HLA-A*02:01 Tgm; assay type: in vivo; details: HLA-A*02:01-restricted short peptide vaccine once per week, three times, splenocytes
Procedure: as §1, §2, §3

HLA-A*02:01 Tgm = experiment: Long peptide vaccine, IFN-γ ELISpot, HLA-A*02:01 Tgm; assay type: in vivo, mice; details: long peptide (15 to 21 mer) containing the short peptide, CTLs reactive with the short peptide
Procedure: as §2

Row | Sequence | CTL induction [1] | Long peptide reaction (HLA-A*24:02 Tgm) | CTL induction [2] | Long peptide reaction (HLA-A*02:01 Tgm)
1 | YGNRIVQEF [CLDN1-A24-4] | Yes | No |  | 
2 | FIFHKDLCQ [CA02 103] |  |  | Yes | No
3 | EFGQALFTGW [CLDN1-A24-5] | Yes | No |  | 
4 | KLCGPYEKF [CA24 23, hHSP105α HLA-A*24:02 short peptide] | peptide-specific IFN-γ production had been found |  |  | 
5 | SLVSNVNIEL [CA02 83] |  |  | Yes | Yes
6 | YYICQTLNV [CA24 97] | Yes | No |  | 
7 | SYGIVMWEV [CA24 124] | Yes | Yes |  | 
8 | RYLTLDQVF [CA24 31] | Yes | No |  | 
9 | FLIIQNAAV [A02-GPC3-12] |  |  | Yes | No
10 | AYMLEVYGSL [LAT1-A24-5] | Yes | No |  | 
11 | TVDGSTFSV [CA02 92] |  |  | Yes | 
12 | KLDVGNIVL [LAT1-A02-3] |  |  | Yes | 
13 | VIADRPPPV [CA02 97] |  |  | Yes | Yes
14 | FFTDVSLYI [A24-GPC3-10] | Yes |  |  | 
15 | AYLEVTDVI [CA24 91] | Yes |  |  | 
16 | IVMWEVMSF [CA24 127] | Yes |  |  | 
17 | VMSWIIPVF [LAT1-A24-6] | Yes |  |  | 
18 | GLDEEQHSV [CA02 121] |  |  | Yes | Yes
19 | KMKPLLPRV [CA0233] |  |  | Yes | 
20 | FTYEDPNEAV [CA02 127] |  |  | Yes | 
21 | WYGNRIVQEF [CLDN1-A24-2] | Yes | No |  | 
22 | HLIDKVISTI [CA02 82] |  |  | Yes | 
23 | AFEFVGEFF [A24-GPC3-17] | Yes | No |  | 
24 | IYTWIEDHF [CA24 32] | Yes | No |  | 

Row | Sequence | CTL induction [1] | Long peptide reaction (HLA-A*24:02 Tgm) | CTL induction [2] | Long peptide reaction (HLA-A*02:01 Tgm)
25 | MYIFPVHWQF [CA24 51] | Yes | No |  | 
26 | TMNDSLSKI [CA0235] |  |  | Yes | No
27 | AWSYGIVMW [CA24 123] | Yes |  |  | 
28 | YLIGHGTKV [CA02 122] |  |  | Yes | 
29 | CYAELGTTI [LAT1-A24-2] | Yes | Yes |  | 
30 | RLEAGDHPV [CA02 52] |  |  | Yes | No
31 | HFFATKCTL [CA24 55] | Yes |  |  | 
32 | RIYDMENVLL [A02-GPC3-10] |  |  | Yes | 
33 | GWAAASLCL [CLDN1-A24-7] | Yes | No |  | 
34 | LLTPVPSLV [LAT1-A02-2] |  |  | Yes | 
35 | YMLEVYGSL [LAT1-A02-5] |  |  | Yes | No
36 | ELFDSLFPV [CA02 12] |  |  | Yes | 
37 | DYIGPCKYI [CA24 54] | Yes |  |  | 
38 | VLDSLVSNV [CA02 81] |  |  | Yes | 
39 | AYYPEDLFI [A24-GPC3-11] | Yes | No |  | 
40 | ILPYCRPTF [CA24 98] | Yes | Yes |  | 
41 | KYWREYILSL [A24-GPC3-06] | Yes | No |  | 
42 | ADFSGLLEKC [CA24 105] | Yes | No |  | 
43 | LLQKIEVPL [CA02 24] |  |  | Yes | 
44 | FLLCLAGRAL [CA02 56] |  |  | Yes | No
45 | KYVCVGTNM [CA24 95] | Yes |  |  | 
46 | PYPEAKIGRF [CA24 24, hHSP105α HLA-A*24:02 short peptide] | peptide-specific IFN-γ production had been found |  |  | 
47 | HYAKIAADF [CA24 21] | Yes | No |  | 
48 | PFSKVLTFL [CA24 22, hHSP105α HLA-A*24:02 short peptide] | peptide-specific IFN-γ production had been found |  |  | 

Row | Sequence | CTL induction [1] | Long peptide reaction (HLA-A*24:02 Tgm) | CTL induction [2] | Long peptide reaction (HLA-A*02:01 Tgm)
49 | ALFTGWAAA [CLDN1-A02-2] |  |  | Yes | No
50 | NYGIYKQDL [CA24 25, hHSP105α HLA-A*24:02 short peptide] | peptide-specific IFN-γ production had been found |  |  | 
51 | YIFPVHWQF [CA24 52] | Yes | No |  | 
52 | VLLGLFSTI [CA02 15] |  |  | Yes | Yes
53 | QLLTPVPSL [LAT1-A02-1] |  |  | Yes | No
54 | ILMVFSIWL [CA02 95] |  |  | Yes | Yes
55 | LQLLGFILA [CLDN1-A02-6] |  |  | Yes | 
56 | FIFHKDLCQA [CA02 101] |  |  | Yes | No
57 | FLRRGPFEL [CA02 21] |  |  | Yes | 
58 | FLAELAYDL [CA02 11] |  |  | Yes | Yes
59 | TIHDSIQYV [CA02 13] |  |  | Yes | Yes
60 | GQFTVIQLV [CA02 126] |  |  | Yes | 
61 | ILSMIHPQL [LAT1-A02-4] |  |  | Yes | No
62 | FFTDVSLYI [A02-GPC3-18] |  |  | Yes | 
63 | YSYAGDNIV [CLDN1-A02-5] |  |  | Yes | 
64 | KYFTNCKQW [CA24 85] | Yes |  |  | 
65 | DFSGLLEKC [CA02 104] |  |  | Yes | No
66 | STIHDSIQYV [A02-GPC3-14] |  |  | Yes | Yes
67 | SYMAMIQFAI [CA24 34] | Yes | No |  | 
68 | YIIEAFSHA [CA02 91] |  |  | Yes | 
69 | DFSGLLEKC [CA24 102] | Yes | No |  | 
70 | MLVAAIQSA [CA02 86] |  |  | Yes | No
71 | TFDSSCHFF [CA24 53] | Yes | No |  | 
